Source: ChEMBL document CHEMBL2074407, “Identification of thyroid hormone transporters” (Biochem Biophys Res Commun, 1999)
Counter-ions that a name gives are not always drawn.

Experiments:
[1] = biological target: T1, Hepatic sodium/bile acid cotransporter (Rattus norvegicus, UniProt P26435); experiment: (§1) TP_TRANSPORTER: uptake in Xenopus laevis oocytes; assay type: functional, cell-based; conditions: oocyte
T1 sequence (P26435 whole entry): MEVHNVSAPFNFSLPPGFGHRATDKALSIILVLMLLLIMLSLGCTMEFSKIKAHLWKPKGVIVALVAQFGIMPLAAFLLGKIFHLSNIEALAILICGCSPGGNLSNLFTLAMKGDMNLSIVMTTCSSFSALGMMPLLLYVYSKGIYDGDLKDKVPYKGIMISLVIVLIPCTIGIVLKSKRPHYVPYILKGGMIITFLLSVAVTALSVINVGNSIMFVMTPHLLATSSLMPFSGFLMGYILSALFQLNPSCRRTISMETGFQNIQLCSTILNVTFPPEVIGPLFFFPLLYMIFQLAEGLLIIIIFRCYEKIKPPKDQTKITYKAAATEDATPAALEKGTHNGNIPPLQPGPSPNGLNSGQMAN

[2] = biological target: T2, Solute carrier organic anion transporter family member 1A1 (Rattus norvegicus, UniProt P46720); experiment: as §1; assay type: functional, cell-based; conditions: oocyte
T2 sequence (P46720 whole entry): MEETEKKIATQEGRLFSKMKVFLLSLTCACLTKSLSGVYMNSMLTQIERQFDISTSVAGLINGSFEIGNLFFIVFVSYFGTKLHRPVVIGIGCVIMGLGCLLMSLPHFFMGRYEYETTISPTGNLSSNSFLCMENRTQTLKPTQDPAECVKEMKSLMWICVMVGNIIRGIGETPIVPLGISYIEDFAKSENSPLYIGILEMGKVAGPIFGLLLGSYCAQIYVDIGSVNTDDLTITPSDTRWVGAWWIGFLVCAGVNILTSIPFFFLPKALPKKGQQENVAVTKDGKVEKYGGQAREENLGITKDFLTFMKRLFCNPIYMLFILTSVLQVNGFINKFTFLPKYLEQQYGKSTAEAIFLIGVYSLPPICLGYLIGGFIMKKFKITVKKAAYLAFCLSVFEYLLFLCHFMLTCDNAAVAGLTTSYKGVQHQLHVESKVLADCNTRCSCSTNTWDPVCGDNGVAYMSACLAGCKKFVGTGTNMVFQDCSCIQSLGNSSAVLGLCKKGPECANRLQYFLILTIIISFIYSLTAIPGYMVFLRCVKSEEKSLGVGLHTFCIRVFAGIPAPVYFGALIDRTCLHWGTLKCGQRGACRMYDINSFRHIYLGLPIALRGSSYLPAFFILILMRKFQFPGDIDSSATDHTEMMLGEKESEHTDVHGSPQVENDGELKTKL

N[C@@H](Cc1cc(I)c(Oc2ccc(O)c(I)c2)c(I)c1)C(=O)O [LIOTHYRONINE]
Activity [1]: substrate [+]
Activity [2]: substrate [+]

N[C@@H](Cc1cc(I)c(Oc2ccc(OS(=O)(=O)O)c(I)c2)c(I)c1)C(=O)O [TRIIODOTHYRONINE SULFATE]
Activity [1]: substrate [+]
Activity [2]: substrate [+]

N[C@@H](Cc1ccc(Oc2cc(I)c(O)c(I)c2)c(I)c1)C(=O)O [REVERSE TRIIODOTHYRONINE]
Activity [1]: substrate [+]
Activity [2]: substrate [+]

NS(=O)(=O)O.N[C@@H](Cc1cc(I)c(Oc2ccc(O)c(I)c2)c(I)c1)C(=O)O [TRIIODOTHYRONINE SULFAMATE]
Activity [2]: substrate [+]

N[C@@H](Cc1cc(I)c(Oc2cc(I)c(O)c(I)c2)c(I)c1)C(=O)O [LEVOTHYROXINE]
Activity [1]: substrate [+]
Activity [2]: substrate [+]

NS(=O)(=O)O.N[C@@H](Cc1cc(I)c(Oc2cc(I)c(O)c(I)c2)c(I)c1)C(=O)O [THYROXINE SULFAMATE]
Activity [2]: substrate [+]

NC(Cc1cc(I)c(Oc2cc(I)c(OS(=O)(=O)O)c(I)c2)c(I)c1)C(=O)O (stereo not drawn) [THYROXINE SULFATE]
Activity [1]: substrate [+]
Activity [2]: substrate [+]

NC(Cc1ccc(Oc2ccc(OS(=O)(=O)O)c(I)c2)c(I)c1)C(=O)O (stereo not drawn) [DIIODOTHYRONINE SULFATE]
Activity [1]: substrate [+]
Activity [2]: substrate [+]

NC(Cc1ccc(Oc2ccc(O)c(I)c2)c(I)c1)C(=O)O (stereo not drawn) [DIIODOTHYRONINE]
Activity [1]: substrate [+]
Activity [2]: substrate [+]

N[C@@H](Cc1ccc(Oc2cc(I)c(O)c(I)c2)c(I)c1)C(=O)O.O=S(=O)(O)O [REVERSE TRIIODOTHYRONINE(RT3) SULFATE]
Activity [1]: substrate [+]
Activity [2]: substrate [+]
